Source: US20240092784A1, “CONDENSED HETEROCYCLIC COMPOUND” (NISSAN CHEMICAL CORPORATION, priority 2020, published 2024)
Where a name gives a salt, the structure may show the parent alone.

target: human SPR (Homo sapiens (Human), UniProt P35270); assay: Evaluation Example 2: Measurement of human SPR inhibitory activity (seven concentrations, sepiapterin absorbance at 420 nm); type: biochemical; conditions: Evaluation Example 2, seven concentrations 0.14 nM to 100 nM, 240 minutes at room temperature, read-out: IC50
Sequence (P35270 whole entry): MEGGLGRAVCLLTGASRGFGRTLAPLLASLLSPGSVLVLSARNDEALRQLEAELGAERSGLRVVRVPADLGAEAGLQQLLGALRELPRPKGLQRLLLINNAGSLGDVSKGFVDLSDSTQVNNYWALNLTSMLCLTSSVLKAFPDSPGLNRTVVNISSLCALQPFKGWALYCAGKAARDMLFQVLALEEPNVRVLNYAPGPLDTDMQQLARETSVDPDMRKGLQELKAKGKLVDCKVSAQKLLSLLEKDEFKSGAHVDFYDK
Method in brief: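 Reactions ran 240 min at room temperature in 100 mM Tris-HCl pH 7.5 with 0.01% BSA. They contained tag-cleaved, E. coli-expressed full-length human SPR (diluted to 150 ng/mL), seven compound concentrations from 0.14 to 100 nM, and sepiapterin/NADPH added as a 120 μM/160 μM solution. Inhibition was calculated from sepiapterin absorbance at 420 nm.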

In order of falling IC50:
1. Cc1cc2n(CC(C)C)c(=O)c(C(=O)NC3CC3)c(O)n2n1 [Synthesis Example 319, N-Cyclopropyl-7-hydroxy-4-isobutyl-2-methyl-5-oxo-4,5-dihydropyrazolo[1,5-a]pyrimidine-6-carboxamide]  3.16 nM
2. C[C@H](Nc1cc2n(CC(C)(C)C)c(=O)c(C(=O)NC3CC3)c(O)n2n1)c1ccccn1 [Synthesis Example 326, (S)-N-Cyclopropyl-7-hydroxy-4-neopentyl-5-oxo-2-((1-(pyridin-2-yl)ethyl)amino)-4,5-dihydropyrazolo[1,5-a]pyrimidine-6-carboxamide]  1.96 nM
3. Cc1cc2n(CC(C)(C)C)c(=O)c(C(=O)NC3CC3)c(O)n2n1 [Synthesis Example 320, N-Cyclopropyl-7-hydroxy-2-methyl-4-neopentyl-5-oxo-4,5-dihydropyrazolo[1,5-a]pyrimidine-6-carboxamide]  1.69 nM
4. CC(C)(C)Cn1c(=O)c(C(=O)NC2CC2)c(O)n2nc(Nc3cncc(C#N)n3)cc12 [Synthesis Example 324, 2-((6-Cyanopyrazin-2-yl)amino)-N-cyclopropyl-7-hydroxy-4-neopentyl-5-oxo-4,5-dihydropyrazolo[1,5-a]pyrimidine-6-carboxamide]  1.61 nM
5. CC(C)(C)Cn1c(=O)c(C(=O)NC2CC2)c(O)n2nc(Nc3ccnc(C#N)n3)cc12 [Synthesis Example 325, 2-((2-Cyanopyrimidin-4-yl)amino)-N-cyclopropyl-7-hydroxy-4-neopentyl-5-oxo-4,5-dihydropyrazolo[1,5-a]pyrimidine-6-carboxamide]  1.45 nM
6. CC(C)Cn1c(=O)c(C(=O)NC2CC2)c(O)n2nc(O)cc12 [Synthesis Example 318, N-Cyclopropyl-2,7-dihydroxy-4-isobutyl-5-oxo-4,5-dihydropyrazolo[1,5-a]pyrimidine-6-carboxamide]  1.43 nM
7. CC(C)(C)Cn1c(=O)c(C(=O)NC2CC2)c(O)n2nc(-c3c[nH]nc3N)cc12 [Synthesis Example 317, 2-(3-Amino-1H-pyrazol-4-yl)-N-cyclopropyl-7-hydroxy-4-neopentyl-5-oxo-4,5-dihydropyrazolo[1,5-a]pyrimidine-6-carboxamide]  1.34 nM
8. CC(C)(C)Cn1c(=O)c(C(=O)NC2CC2)c(O)n2nc(Nc3cnc(C#N)cn3)cc12 [Synthesis Example 323, 2-((5-Cyanopyrazin-2-yl)amino)-N-cyclopropyl-7-hydroxy-4-neopentyl-5-oxo-4,5-dihydropyrazolo[1,5-a]pyrimidine-6-carboxamide]  1.2 nM
9. CC(C)(C)Cn1c(=O)c(C(=O)NC2CC2)c(O)n2nc(-c3[nH]ncc3C(=O)NCC3CCOCC3)cc12 [Synthesis Example 315, N-Cyclopropyl-7-hydroxy-4-neopentyl-5-oxo-2-(4-(((tetrahydro-2H-pyran-4-yl)methyl)carbamoyl)-1H-pyrazol-5-yl)-4,5-dihydropyrazolo[1,5-a]pyrimidine-6-carboxamide hydrochloride]  1.11 nM
10. CC(C)(C)Cn1c(=O)c(C(=O)NC2CC2)c(O)n2nc(Nc3cnc(F)cn3)cc12 [Synthesis Example 322, N-Cyclopropyl-2-((5-fluoropyrazin-2-yl)amino)-7-hydroxy-4-neopentyl-5-oxo-4,5-dihydropyrazolo[1,5-a]pyrimidine-6-carboxamide]  0.98 nM
11. CC(C)(C)Cn1c(=O)c(C(=O)NC2CC2)c(O)n2nc(-c3[nH]ncc3C(=O)N3CCC(F)(F)C3)cc12 [Synthesis Example 316, N-Cyclopropyl-2-(4-(3,3-difluoropyrrolidine-1-carbonyl)-1H-pyrazol-5-yl)-7-hydroxy-4-neopentyl-5-oxo-4,5-dihydropyrazolo[1,5-a]pyrimidine-6-carboxamide hydrochloride]  0.9 nM
12. COC(C)(C)Cn1c(=O)c(C(=O)NC2CC2)c(O)n2nc(Nc3cnccn3)cc12 [Synthesis Example 321, N-Cyclopropyl-7-hydroxy-4-(2-methoxy-2-methylpropyl)-5-oxo-2-(pyrazin-2-ylamino)-4,5-dihydropyrazolo[1,5-a]pyrimidine-6-carboxamide]  0.72 nM
